{"source": "paper PMC10945559", "about": "“Forgotten Natural Products: Semisynthetic Development of Blasticidin S As an Antibiotic Lead” (ACS Medicinal Chemistry Letters, 2024)", "key": {"[1]": {"experiment": "in vitro", "type": "cell-based, human", "conditions": "human; MRC-5 (lung fibroblast); 24 h; one biological replicate (n = 3); read-out: CC50 for human cells", "protocol": "(§1) as a range from biological replicates. Inhibition curves were generated using Prism (GraphPad).\n(§2) The IC50 values reported in Table 2 are the average of the two biological replicates ± standard […]\n(§3) Cytotoxicity Assay Procedure\n(§4) Human lung fibroblast cells, MRC -5 (CCL-171), were cultured at 37℃ with 5% CO2 and were plated at 5000 cells/well in a 96 -well plate. Compounds 1, 2, and 15-22 were initially prepared at concentrations of 5.12 mg/mL in a vehicle of 50% DMSO. Dilutions of the compounds (4 – 512 μg/mL) were then prepared in growth medium containing Dulbecco’s modified Eagle’s medium (DMEM) with high glucose, L -glutamine, and sodium pyruvate supplemented with 10% fetal bovine serum (FBS), 1% non -essential amino acids, and 0.1% gentamicin sulfate, and 25mM HEPES. The vehicle (50% DMSO) was also prepared via the sa me dilution series to serve as a control. Growth media was removed from the cells and replaced with the same volume of each compound dilution. Cells were incubated for 24 h , after which CellTiter 96® AQueous One Solution Reagent was added to each well as recommended by the manufacturer’s protocol (Promega CellTiter 96 AQueous One Solution Cell Proliferation Assay) and further incubated for 4 h. After incubation, absorbance was measured at 490 nm on an Infinite M plex multimode microplate reader with i -control Tecan software. Viability was calculated by subtracting media only absorbance values and normalizing to the vehicle control at each concentration. The presented data is one assay performed in triplicate that is representative of multiple trials. Data for the 256 and 512 μg/mL concentrations were removed from analysis due to vehicle toxicity […]\n(§5) CC50 concentrations were determined via the ED50 Plus v1.0 software (https://archive.org/details/ed50v10_zip).\nFigure S41. The effect of compounds on cell viability. The lines represent non -linear regression curves, and error bars represent means ± […]\nSD (n=3). […]"}, "[2]": {"tested_on": "S. aureus 8810", "experiment": "Broth microdilution antibacterial assay", "type": "cell-based, Staphylococcus aureus", "protocol": "(§6) Antibacterial Assay Procedure\n(§7) Broth Microdilution Assays\n(§8) Media and solutions were autoclaved or sterile filtered prior to use and manipulations were carried out in a laminar flow hood. Antibacterial testing was performed in polypropylene 96 -well flat bottom plates. The minimal inhibitory concentration of blasticidin S ( 1) hydrochloride, P10 (2), and derivatives 15–22 were assessed against Staphylococcus aureus ΔNorA, S. aureus 8810, methicillin-resistant S. aureus (MRSA) ATCC 43300, Enterococcus faecalis ATCC 29212, vancomycin-resistant Enterococcus, Klebsiella pneumoniae ATCC 29665, Pseudomonas aeruginosa, and Acinetobacter baumannii ATCC 17978 using serial dilutions. Doxycycline (Gold Bio) as a positive control and the vehicle as a negative control. Stock solutions of each compound were prepared at 5.12 mg/mL in 50% DMSO/water and serially diluted in 50% DMSO/water to create master plates. From the master plates, 10 μL of each dilution was applied to test plates using a Bravo automated liquid transfer system (Agilent). Bacteria previously grown overnight (37 °C, 120 – 200 RPM), in LB broth were diluted to an OD600 of 0.0 5 in cation-adjusted Mueller-Hinton broth, grown to an OD600 of ~0.5, and diluted to an OD600 of 0.004 in cation-adjusted Mueller-Hinton broth. These diluted cultures were applied to the test plates (190 μL per test well) resulting in final concentrations of the test compounds of 256–2 μg/mL. Growth controls (wells with inoculated media but no vehicle or test compounds) were included to assess any potential toxicity from the vehicle. The plates were incubated at 37 °C for 16–18 h, except for VRE and E. faecalis, which were incubated at 37 °C for 24 h. Inhibition was determined by measuring the optical density at 600 nm (OD600) with a Cytation 3 plate reader (BioTek). The optical density measurements were normalized to the positive and negative controls and the vehicle and growth controls were compared and found to be indistinguishable, indicating no toxicity from the vehicle used. The MIC was the lowest concentration that inhibited >90% of growth. Two biological replicates were performed in duplicate. MIC values are reported […]\nas §1, §2, §3, §4, §5"}, "[3]": {"tested_on": "methicillin-resistant S. aureus (MRSA) ATCC 43300", "experiment": "Broth microdilution antibacterial assay", "type": "cell-based, Staphylococcus aureus", "protocol": "as §6, §7, §8, §1, §2, §3, §4, §5"}, "[4]": {"tested_on": "Klebsiella pneumoniae ATCC 29665", "experiment": "Broth microdilution antibacterial assay", "type": "cell-based", "protocol": "as §6, §7, §8, §1, §2, §3, §4, §5"}, "[5]": {"tested_on": "Pseudomonas aeruginosa", "experiment": "Broth microdilution antibacterial assay", "type": "cell-based", "protocol": "as §6, §7, §8, §1, §2, §3, §4, §5"}, "[6]": {"tested_on": "vancomycin-resistant Enterococcus (VRE)", "experiment": "Broth microdilution antibacterial assay", "type": "cell-based", "protocol": "as §6, §7, §8, §1, §2, §3, §4, §5"}, "[7]": {"tested_on": "Acinetobacter baumannii ATCC 17978", "experiment": "Broth microdilution antibacterial assay", "type": "cell-based", "protocol": "as §6, §7, §8, §1, §2, §3, §4, §5"}, "[8]": {"tested_on": "Enterococcus faecalis ATCC 29212", "experiment": "Broth microdilution antibacterial assay", "type": "cell-based", "protocol": "as §6, §7, §8, §1, §2, §3, §4, §5"}, "[9]": {"tested_on": "Staphylococcus aureus ΔNorA", "experiment": "Broth microdilution antibacterial assay", "type": "cell-based", "protocol": "as §6, §7, §8, §1, §2, §3, §4, §5"}}, "note": "Read-outs that look alike come from different tables or passages of the source."}
{"smiles": "C#CCNC(=O)[C@H]1O[C@@H](n2ccc(N)nc2=O)C=C[C@@H]1NC(=O)C[C@@H](N)CCN(C)C(=N)N", "note": "[Compound 19]", "values": [{"measurement": "CC50 at 24 h", "setting": "[1]", "value": 33.1, "unit": "µg/mL"}, {"measurement": "Selectivity index (CC50/IC50)", "setting": "[2]; MRC-5 CC50 / S. aureus IC50", "value": 9.2}, {"measurement": "IC50", "setting": "[2]; Staphylococcus aureus, 8810, S. aureus, average of two biological replicates ± S.D., read-out: IC50", "value": "3.6 ± 0.3", "unit": "µg/mL"}, {"measurement": "MIC", "setting": "[2]; Staphylococcus aureus, 8810, S. aureus, lowest concentration inhibiting >90% of growth, range from biological replicates, read-out: MIC", "value": 32, "unit": "µg/mL"}, {"measurement": "MIC", "setting": "[2]; Staphylococcus aureus, 8810, average MIC, Table S3, read-out: Average Activity against S. aureus", "value": 32, "unit": "µg/mL"}, {"measurement": "Selectivity index (CC50/IC50)", "setting": "[3]; MRC-5 CC50 / MRSA IC50", "value": 4.8}, {"measurement": "IC50", "setting": "[3]; Staphylococcus aureus, MRSA, average of two biological replicates ± S.D., read-out: IC50", "value": "6.9 ± 1.2", "unit": "µg/mL"}, {"measurement": "MIC", "setting": "[3]; Staphylococcus aureus, MRSA, lowest concentration inhibiting >90% of growth, range from biological replicates, read-out: MIC", "value": "16 to 32", "unit": "µg/mL"}, {"measurement": "MIC", "setting": "[3]; Staphylococcus aureus, average MIC, Table S3, read-out: Average Activity against MRSA", "value": 24, "unit": "µg/mL"}, {"measurement": "IC50", "setting": "[4]; Klebsiella pneumoniae, ATCC29665, K. pneumoniae, average of two biological replicates ± S.D., read-out: IC50", "value": "40.4 ± 6.2", "unit": "µg/mL"}, {"measurement": "MIC", "setting": "[4]; Klebsiella pneumoniae, ATCC29665, K. pneumoniae, lowest concentration inhibiting >90% of growth, range from biological replicates, read-out: MIC", "value": 128, "unit": "µg/mL"}, {"measurement": "Selectivity index (CC50/IC50)", "setting": "[4]; MRC-5 CC50 / K. pneumoniae IC50", "value": 0.8}, {"measurement": "Selectivity index (CC50/IC50)", "setting": "[5]; MRC-5 CC50 / P. aeruginosa IC50", "value": 2.1}, {"measurement": "IC50", "setting": "[5]; Pseudomonas aeruginosa, P. aeruginosa, average of two biological replicates ± S.D., read-out: IC50", "value": "16.1 ± 0.9", "unit": "µg/mL"}, {"measurement": "MIC", "setting": "[5]; Pseudomonas aeruginosa, P. aeruginosa, lowest concentration inhibiting >90% of growth, range from biological replicates, read-out: MIC", "value": 64, "unit": "µg/mL"}, {"measurement": "MIC", "setting": "[6]; Enterococcus, VRE, average MIC, Table S3, read-out: Average Activity against VRE", "value": 64, "unit": "µg/mL"}, {"measurement": "MIC", "setting": "[6]; Enterococcus, VRE, 24 h, lowest concentration inhibiting >90% of growth, range from biological replicates, read-out: MIC", "value": 64, "unit": "µg/mL"}, {"measurement": "IC50", "setting": "[6]; Enterococcus, VRE, average of two biological replicates ± S.D., read-out: IC50", "value": "21.1 ± 4.8", "unit": "µg/mL"}, {"measurement": "Selectivity index (CC50/IC50)", "setting": "[6]; MRC-5 CC50 / VRE IC50", "value": 1.6}, {"measurement": "IC50", "setting": "[7]; Acinetobacter baumannii, ATCC17978, A. baumannii, average of two biological replicates ± S.D., read-out: IC50", "value": "21.1 ± 3.9", "unit": "µg/mL"}, {"measurement": "MIC", "setting": "[7]; Acinetobacter baumannii, ATCC17978, A. baumannii, lowest concentration inhibiting >90% of growth, range from biological replicates, read-out: MIC", "value": 128, "unit": "µg/mL"}, {"measurement": "Selectivity index (CC50/IC50)", "setting": "[7]; MRC-5 CC50 / A. baumannii IC50", "value": 1.6}, {"measurement": "MIC", "setting": "[8]; Enterococcus faecalis, ATCC29212, E. faecalis, 24 h, lowest concentration inhibiting >90% of growth, range from biological replicates, read-out: MIC", "value": "16 to 32", "unit": "µg/mL"}, {"measurement": "IC50", "setting": "[8]; Enterococcus faecalis, ATCC29212, E. faecalis, average of two biological replicates ± S.D. (18: one biological replicate), read-out: IC50", "value": "7.6 ± 1.5", "unit": "µg/mL"}, {"measurement": "MIC", "setting": "[8]; Enterococcus faecalis, ATCC29212, average MIC, Table S3, read-out: Average Activity against E. faecalis", "value": 16, "unit": "µg/mL"}, {"measurement": "Selectivity index (CC50/IC50)", "setting": "[8]; MRC-5 CC50 / E. faecalis IC50", "value": 4.4}, {"measurement": "Selectivity index (CC50/IC50)", "setting": "[9]; MRC-5 CC50 / S. aureus ΔNorA IC50", "value": 2.0}, {"measurement": "IC50", "setting": "[9]; Staphylococcus aureus", "value": "16.2 ± 0.9", "unit": "µg/mL"}, {"measurement": "MIC", "setting": "[9]; Staphylococcus aureus", "value": "64 to 128", "unit": "µg/mL"}]}
